The source of these data is patent US12139481B2, “Compositions comprising macrocycle derivatives incorporating bridged macrocycles and methods of producing and using same” (Southwestern Oklahoma State University, priority 2015, dated 2024).

SMILES strings stand for the structures. pIC50: −log10 of the molar value. Several values for one entry are separate records, joined by “and”; a condition that tells them apart may be missing. Equal entries are not always repeated. Where two headings read alike, the source gives them in different places.

The subject of one assay is C. krusei ATCC 6258. As to the kind of experiment: Antifungal broth dilution assay against C. krusei (modified CLSI). As to conditions: for X more potent than Amphotericin B: C. krusei, ratio of molar IC50 to amphotericin B; for C. krusei IC50 / pIC50: in vitro; for pIC50: read-out: C. krusei IC50 (mol/L). In kind it is cell-based, Candida krusei. In a few lines: (§1)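 Growth read by optical density at 530 nm, duplicate wells, 1% final DMSO. Staphylococcus spp.: Mueller-Hinton pH 7.3, 5.0×10^5 CFU/ml, 35 °C for 16-20 h; Candida spp.: RPMI/dextrose/glutamine/MOPS pH 6.0, 1.5×10^3 CFU/ml, 35 °C for 46-50 h. Reported values are 50% inhibition versus controls, no-growth MIC, and killing MFC/MBC.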

Assay [1] deals with methicillin-resistant S. aureus ATCC 33591 (MRS). Kind of assay: Antibacterial broth dilution assay against MRSA (modified CLSI). In kind it is cell-based, Staphylococcus aureus. Conditions: for MRSa IC50 / pIC50: in vitro; for pIC50: converted with molecular weight; for X more potent than ciprofloxacen: molar IC50 ratio versus ciprofloxacen. In a few lines: as §1
The test system of assay [2] is L. donovani promastigotes. Kind of assay: Antileishmanial Alamar Blue assay on promastigotes. The assay is classed as cell-based, Leishmania donovani. As to conditions: for X more potent than Pentamidine: L. donovani, ratio of molar IC50 to Pentamidine. In a few lines: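 Alamar Blue fluorescence (544/590 nm) quantified growth after 48 hours at 26° C of compound-treated promastigotes. Parasites were seeded at 5×10^5/mL in RPMI 1640 plus 10% FCS; drug range 50-3.1 μg/mL, and IC50 derived by plotting percent growth against test concentration.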
A general note: The colour change of resazurin is a common sign of viable cells or microbes.

Assay [3] concerns S. mansoni newly transformed schistosomula (NTS). As to the kind of experiment: In vitro testing on Schistosoma mansoni newly transformed schistosomula (NTS), viability score. As to conditions: NTS S. mansoni, 33 μM, 72 h. The assay is classed as cell-based. In a few lines:
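Mechanically transformed S. mansoni (Liberian strain) NTS, cultured overnight, exposed at 100 per well to compound (from 10 mM DMSO stock; ≤1% DMSO controls) at 37 °C, 5% CO2 for 72 h. Viability scored microscopically from 3 (normal activity, intact tegument) to 0 (dead, granulated).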

The mark [4] stands for this setting: promastigotes, 48 hours, Alamar Blue.
Where [5] appears, read: promastigotes, 48 hours, Alamar Blue, read-out: L. donavani IC50.

Turning to `c1ccc(CN2CCN3CCCN(CC2)CCN(Cc2ccccc2)CC3)cc1` [AW009, Bn2PBCyclen], in the assay with C. krusei ATCC 6258, the “X more potent than Amphotericin B” value is 0.10, the “C. krusei IC50” value was found to be 6.170 µg/mL and the pIC50 is 4.80. Further, in assay [1], the “MRSa IC50” value is 1.050 µg/mL, the pIC50 was 5.57 and the “X more potent than ciprofloxacen” value stood at 0.08. Besides, in assay [2], the “X more potent than Pentamidine” value came out at 0.10. The “L. donovani IC50” value in assay [2] (setting [4]) was 21.40 µg/mL. For the same compound, the pIC50 in assay [2] (setting [5]) is 4.26.

For the compound `[Cl][Mn-2]([Cl])([Cl])[Cl].[Mn+2].c1ccc(CN2CCCN3CCCN(CCCN(Cc4ccccc4)CC3)CC2)cc1` [BME08, [Mn(Bn2PBCyclam)][MnCl4]], in the assay with C. krusei ATCC 6258, the “X more potent than Amphotericin B” value was 0.19, the “C. krusei IC50” value amounted to 5.270 µg/mL and the pIC50 was 5.11. In addition, in assay [1], the “MRSa IC50” value was 0.800 µg/mL, the pIC50 was 5.92 and the “X more potent than ciprofloxacen” value is listed as 0.18. Besides, the “X more potent than Pentamidine” value in assay [2] was 2 and 2.01. Moreover, the “L. donovani IC50” value in assay [2] (setting [4]) worked out at 1.78 µg/mL. In addition, in assay [2] (setting [5]), the pIC50 was 5.58. For the same compound, the pIC50 in assay [2] (read-out: IC50 against L. donovani) was 5.58.

`CC(=O)[O-].F[P-](F)(F)(F)(F)F.[Ni+2].c1ccc(CN2CCCN3CCCN(CCCN(Cc4ccccc4)CC3)CC2)cc1` [DJD22, [Ni(Bn2PBCyclam)(OAc)]PF6]: in the assay with C. krusei ATCC 6258, the “X more potent than Amphotericin B” value was determined as 0.19, the “C. krusei IC50” value worked out at 5.250 µg/mL and the pIC50 was 5.11. Besides, in assay [1], the “MRSa IC50” value came out at 4.620 µg/mL, the pIC50 is 5.17 and the “X more potent than ciprofloxacen” value turned out to be 0.03. In addition, the “X more potent than Pentamidine” value in assay [2] was 0.28. Besides, in assay [2] (setting [4]), the “L. donovani IC50” value worked out at 13.10 µg/mL. In assay [2] (setting [5]), the pIC50 was 4.72.

Consider `c1cc(CN2CCCN3CCCN(CCCNCC3)CC2)ccc1CN1CCCN2CCCN(CCCNCC2)CC1` [SLK10, p-H2PBCyclams], for which, in assay [1], the “MRSa IC50” value came out at 2.500 µg/mL, the pIC50 is 5.37 and the “X more potent than ciprofloxacen” value is given as 0.05. In assay [2], the “X more potent than Pentamidine” value is 0.20. In addition, the “L. donovani IC50” value in assay [2] (setting [4]) was 15.50 µg/mL. Besides, the pIC50 in assay [2] (setting [5]) is 4.58.

With `CN1CCCN2CCN(CCCN(Cc3cccc(CN4CCCN5CCN(C)CCCN(CC5)CC4)c3)CC2)CC1.Cl.Cl.Cl.Cl.Cl.Cl.Cl.Cl` [TJS04, m-CB-cyclams HCl salt], in assay [1], the “MRSa IC50” value was found to be 7.050 µg/mL and the “X more potent than ciprofloxacen” value is recorded as 0.03. The pIC50 in assay [1] (HCl salt) is 5.14. In addition, the “Effect at 72 h (%)” value in assay [3] is given as 24.32%. In addition, in assay [2], the “X more potent than Pentamidine” value came to 0.50. Besides, the “L. donovani IC50” value in assay [2] (setting [4]) turned out to be 10.37 µg/mL. Besides, the pIC50 in assay [2] (promastigotes, 48 hours, Alamar Blue, HCl salt, read-out: L. donavani IC50) is 4.97.
